Data from patent US10344060B2 (priority 2013, dated 2019).

Tests used:
hNav1.4 = hNav1.4 (Homo sapiens, UniProt P35499); assay: cell-based; type: cell-based; conditions: Table 12; ratio of PX tonic IC50 values
hNav1.5 = hNav1.5 (Homo sapiens, UniProt Q14524); assay: cell-based; conditions: Table 12; ratio of PX tonic IC50 values
hNav1.5, sequence (Q14524 whole entry): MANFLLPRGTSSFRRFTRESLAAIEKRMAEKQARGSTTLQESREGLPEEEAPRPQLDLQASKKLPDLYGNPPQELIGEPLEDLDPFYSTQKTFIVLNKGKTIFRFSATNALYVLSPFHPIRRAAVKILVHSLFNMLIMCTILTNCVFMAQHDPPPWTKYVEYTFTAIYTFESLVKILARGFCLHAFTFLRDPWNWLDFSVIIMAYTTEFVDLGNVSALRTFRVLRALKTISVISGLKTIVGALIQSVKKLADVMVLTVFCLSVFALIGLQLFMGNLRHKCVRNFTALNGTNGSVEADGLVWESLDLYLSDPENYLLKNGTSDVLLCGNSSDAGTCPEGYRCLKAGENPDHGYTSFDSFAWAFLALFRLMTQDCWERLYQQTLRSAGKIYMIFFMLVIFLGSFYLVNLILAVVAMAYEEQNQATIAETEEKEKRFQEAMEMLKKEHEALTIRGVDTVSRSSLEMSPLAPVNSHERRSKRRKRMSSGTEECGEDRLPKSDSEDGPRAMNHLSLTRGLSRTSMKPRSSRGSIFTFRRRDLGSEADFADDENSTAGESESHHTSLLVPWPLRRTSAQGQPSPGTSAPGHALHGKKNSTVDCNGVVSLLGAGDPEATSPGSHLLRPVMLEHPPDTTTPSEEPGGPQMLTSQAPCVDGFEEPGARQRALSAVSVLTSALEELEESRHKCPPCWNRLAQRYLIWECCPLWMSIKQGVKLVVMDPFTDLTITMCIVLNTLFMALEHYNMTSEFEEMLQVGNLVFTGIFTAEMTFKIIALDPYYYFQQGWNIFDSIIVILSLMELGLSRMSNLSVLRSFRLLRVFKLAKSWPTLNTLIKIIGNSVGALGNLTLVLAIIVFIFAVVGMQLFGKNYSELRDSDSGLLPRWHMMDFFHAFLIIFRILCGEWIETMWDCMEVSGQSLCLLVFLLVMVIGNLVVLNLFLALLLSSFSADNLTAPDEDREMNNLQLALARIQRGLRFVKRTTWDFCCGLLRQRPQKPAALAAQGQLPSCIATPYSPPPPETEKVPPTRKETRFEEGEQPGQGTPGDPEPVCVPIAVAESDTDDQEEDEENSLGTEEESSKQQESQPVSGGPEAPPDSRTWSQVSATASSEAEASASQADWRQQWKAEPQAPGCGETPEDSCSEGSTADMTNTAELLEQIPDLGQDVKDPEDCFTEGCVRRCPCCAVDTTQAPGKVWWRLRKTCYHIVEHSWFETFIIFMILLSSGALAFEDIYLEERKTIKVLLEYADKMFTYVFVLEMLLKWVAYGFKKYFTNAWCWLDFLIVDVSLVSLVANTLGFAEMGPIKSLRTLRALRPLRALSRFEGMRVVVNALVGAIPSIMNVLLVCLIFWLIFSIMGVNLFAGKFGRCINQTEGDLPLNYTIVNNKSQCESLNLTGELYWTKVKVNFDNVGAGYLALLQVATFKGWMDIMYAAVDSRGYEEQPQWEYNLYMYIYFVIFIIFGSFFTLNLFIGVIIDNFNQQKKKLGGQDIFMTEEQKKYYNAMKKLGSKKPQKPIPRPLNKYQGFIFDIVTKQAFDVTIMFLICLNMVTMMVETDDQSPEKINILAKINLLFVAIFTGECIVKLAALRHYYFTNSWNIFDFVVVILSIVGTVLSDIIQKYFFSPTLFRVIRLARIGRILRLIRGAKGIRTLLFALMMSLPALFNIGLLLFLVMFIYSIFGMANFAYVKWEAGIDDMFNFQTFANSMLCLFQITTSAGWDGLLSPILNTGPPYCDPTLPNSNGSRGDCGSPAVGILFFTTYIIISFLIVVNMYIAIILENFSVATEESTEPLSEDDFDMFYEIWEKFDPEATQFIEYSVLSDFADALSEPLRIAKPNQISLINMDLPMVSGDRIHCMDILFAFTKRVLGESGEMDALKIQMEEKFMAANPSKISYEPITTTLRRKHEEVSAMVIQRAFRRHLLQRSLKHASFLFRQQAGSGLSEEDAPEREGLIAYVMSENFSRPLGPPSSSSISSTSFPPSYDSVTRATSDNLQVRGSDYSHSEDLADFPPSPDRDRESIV

hNav1.4, sequence (P35499 whole entry): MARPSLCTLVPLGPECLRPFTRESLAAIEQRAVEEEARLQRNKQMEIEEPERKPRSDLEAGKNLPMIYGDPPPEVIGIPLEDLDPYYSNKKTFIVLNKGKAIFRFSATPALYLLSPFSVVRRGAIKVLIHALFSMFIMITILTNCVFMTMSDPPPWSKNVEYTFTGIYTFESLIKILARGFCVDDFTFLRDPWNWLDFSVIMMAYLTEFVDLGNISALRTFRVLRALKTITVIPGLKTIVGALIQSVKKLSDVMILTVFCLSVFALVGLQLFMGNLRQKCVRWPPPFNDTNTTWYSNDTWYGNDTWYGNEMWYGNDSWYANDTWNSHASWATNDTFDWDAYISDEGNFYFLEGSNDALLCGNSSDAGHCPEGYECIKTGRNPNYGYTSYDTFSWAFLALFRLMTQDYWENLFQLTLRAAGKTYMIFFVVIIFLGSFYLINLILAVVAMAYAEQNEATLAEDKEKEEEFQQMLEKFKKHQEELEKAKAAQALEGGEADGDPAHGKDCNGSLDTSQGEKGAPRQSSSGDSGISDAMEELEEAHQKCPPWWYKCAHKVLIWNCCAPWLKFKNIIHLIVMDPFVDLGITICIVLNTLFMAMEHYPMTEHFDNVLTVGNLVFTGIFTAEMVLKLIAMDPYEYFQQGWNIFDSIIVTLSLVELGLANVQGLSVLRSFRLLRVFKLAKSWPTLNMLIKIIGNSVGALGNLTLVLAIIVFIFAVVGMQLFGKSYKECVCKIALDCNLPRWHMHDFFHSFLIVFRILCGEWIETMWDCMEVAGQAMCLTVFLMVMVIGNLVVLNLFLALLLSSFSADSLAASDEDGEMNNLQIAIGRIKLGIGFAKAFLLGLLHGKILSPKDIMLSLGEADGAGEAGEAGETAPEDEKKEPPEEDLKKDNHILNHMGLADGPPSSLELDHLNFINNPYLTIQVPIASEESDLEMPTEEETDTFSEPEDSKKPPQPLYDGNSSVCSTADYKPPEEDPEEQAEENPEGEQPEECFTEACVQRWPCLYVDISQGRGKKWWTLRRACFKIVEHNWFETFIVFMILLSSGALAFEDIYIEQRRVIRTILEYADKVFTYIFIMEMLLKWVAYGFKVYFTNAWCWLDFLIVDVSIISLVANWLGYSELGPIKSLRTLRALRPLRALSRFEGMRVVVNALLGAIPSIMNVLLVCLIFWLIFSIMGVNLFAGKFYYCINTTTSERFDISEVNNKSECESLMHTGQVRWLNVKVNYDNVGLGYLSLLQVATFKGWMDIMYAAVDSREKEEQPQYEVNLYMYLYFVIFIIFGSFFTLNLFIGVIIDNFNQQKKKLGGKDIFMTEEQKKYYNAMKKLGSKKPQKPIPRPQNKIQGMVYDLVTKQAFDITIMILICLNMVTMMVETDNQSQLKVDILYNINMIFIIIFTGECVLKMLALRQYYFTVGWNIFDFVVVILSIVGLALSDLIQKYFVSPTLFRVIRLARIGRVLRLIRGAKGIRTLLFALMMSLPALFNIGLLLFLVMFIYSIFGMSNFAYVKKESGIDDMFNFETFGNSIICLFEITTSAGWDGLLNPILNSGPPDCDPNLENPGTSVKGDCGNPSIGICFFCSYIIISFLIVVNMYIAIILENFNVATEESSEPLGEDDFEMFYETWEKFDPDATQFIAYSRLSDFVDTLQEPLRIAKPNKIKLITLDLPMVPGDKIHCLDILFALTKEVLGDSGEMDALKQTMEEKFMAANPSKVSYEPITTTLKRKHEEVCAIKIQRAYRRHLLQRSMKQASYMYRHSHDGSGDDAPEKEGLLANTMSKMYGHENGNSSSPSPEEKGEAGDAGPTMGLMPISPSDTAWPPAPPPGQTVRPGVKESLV

SMILES: CCCC[C@@H]1NC(=O)[C@H](Cc2c[nH]c3ccccc23)NC(=O)[C@H](CCCCN)NC(=O)[C@H](CCC(N)=O)NC(=O)[C@@H](NC(=O)[C@@H](N)Cc2ccc(O)cc2)CSSC[C@@H]2NC(=O)[C@@H]3CSSC[C@@H](C(=O)N[C@@H](CCCNC(=N)N)C(=O)N[C@@H](CCCCN)C(=O)N[C@H](C(=O)N[C@@H](Cc4c[nH]c5ccccc45)C(N)=O)[C@@H](C)CC)NC(=O)[C@H](Cc4c[nH]c5ccccc45)NC(=O)[C@H](CC(C)C)NC(=O)[C@H](CCCCN)NC(=O)[C@H](CSSC[C@H](NC(=O)[C@H]([C@@H](C)O)NC(=O)[C@H](Cc4c[nH]c5ccccc45)NC1=O)C(=O)N[C@@H](CC(=O)O)C(=O)N[C@@H](CO)C(=O)N[C@@H](CCCCN)C(=O)N[C@@H](CCCNC(=N)N)C(=O)N[C@@H](CCCCN=[N+]=[N-])C(=O)N3)NC(=O)[C@H](CCC(=O)O)NC(=O)[C@H](CC(C)C)NC(=O)CNC(=O)[C@H](CCC(=O)O)NC2=O [compound 306]
- Nav1.4/Nav1.7 (hNav1.4): 550
- Nav1.5/Nav1.7 (hNav1.5): 1712

SMILES: CCCC[C@@H]1NC(=O)[C@H](Cc2c[nH]c3ccccc23)NC(=O)[C@H](CCCCN)NC(=O)[C@H](CCC(N)=O)NC(=O)[C@@H](NC(=O)[C@@H](N)Cc2ccc(O)cc2)CSSC[C@@H]2NC(=O)[C@@H]3CSSC[C@@H](C(=O)N[C@@H](CCCNC(=N)N)C(=O)N[C@@H](CCCCN)C(=O)N[C@H](C(=O)N[C@@H](Cc4c[nH]c5ccccc45)C(N)=O)[C@@H](C)CC)NC(=O)[C@H](Cc4c[nH]c5ccccc45)NC(=O)[C@H](CC(C)C)NC(=O)[C@H](CCCCN)NC(=O)[C@H](CSSC[C@H](NC(=O)[C@H]([C@@H](C)O)NC(=O)[C@H](Cc4c[nH]c5ccccc45)NC1=O)C(=O)N[C@@H](CC(=O)O)C(=O)N[C@@H](CO)C(=O)N[C@@H](CCCCN)C(=O)N[C@@H](CCCNC(=N)N)C(=O)N[C@@H](C)C(=O)N3)NC(=O)[C@H](CCC(=O)O)NC(=O)[C@H](CC(C)C)NC(=O)CNC(=O)[C@H](CCCCN=[N+]=[N-])NC2=O [compound 307]
- Nav1.4/Nav1.7 (hNav1.4): 40
- Nav1.5/Nav1.7 (hNav1.5): 83

SMILES: CCCC[C@@H]1NC(=O)[C@H](Cc2c[nH]c3ccccc23)NC(=O)[C@H](CCCCN)NC(=O)[C@H](CCC(N)=O)NC(=O)[C@@H](NC(=O)[C@H](Cc2ccc(O)cc2)NC(=O)[C@@H](N)CCN=[N+]=[N-])CSSC[C@@H]2NC(=O)[C@@H]3CSSC[C@@H](C(=O)N[C@@H](CCCNC(=N)N)C(=O)N[C@@H](CCCCN)C(=O)N[C@H](C(=O)N[C@@H](Cc4c[nH]c5ccccc45)C(N)=O)[C@@H](C)CC)NC(=O)[C@H](Cc4c[nH]c5ccccc45)NC(=O)[C@H](CC(C)C)NC(=O)[C@H](CCCCN)NC(=O)[C@H](CSSC[C@H](NC(=O)[C@H]([C@@H](C)O)NC(=O)[C@H](Cc4c[nH]c5ccccc45)NC1=O)C(=O)N[C@@H](CC(=O)O)C(=O)N[C@@H](CO)C(=O)N[C@@H](CCCCN)C(=O)N[C@@H](CCCNC(=N)N)C(=O)N[C@@H](C)C(=O)N3)NC(=O)[C@H](CCC(=O)O)NC(=O)[C@H](CC(C)C)NC(=O)CNC(=O)[C@H](CCC(=O)O)NC2=O [compound 308]
- Nav1.4/Nav1.7 (hNav1.4): 1068
- Nav1.5/Nav1.7 (hNav1.5): 3351

SMILES: CCCC[C@@H]1NC(=O)[C@H](Cc2c[nH]c3ccccc23)NC(=O)[C@H](CCCCN)NC(=O)[C@H](CCC(N)=O)NC(=O)[C@@H](NC(=O)[C@@H](N)CCN=[N+]=[N-])CSSC[C@@H]2NC(=O)[C@@H]3CSSC[C@@H](C(=O)N[C@@H](CCCNC(=N)N)C(=O)N[C@@H](CCCCN)C(=O)N[C@H](C(=O)N[C@@H](Cc4c[nH]c5ccccc45)C(N)=O)[C@@H](C)CC)NC(=O)[C@H](Cc4c[nH]c5ccccc45)NC(=O)[C@H](CC(C)C)NC(=O)[C@H](CCCCN)NC(=O)[C@H](CSSC[C@H](NC(=O)[C@H]([C@@H](C)O)NC(=O)[C@H](Cc4c[nH]c5ccccc45)NC1=O)C(=O)N[C@@H](CC(=O)O)C(=O)N[C@@H](CO)C(=O)N[C@@H](CCCCN)C(=O)N[C@@H](CCCNC(=N)N)C(=O)N[C@@H](C)C(=O)N3)NC(=O)[C@H](CCC(=O)O)NC(=O)[C@H](CC(C)C)NC(=O)CNC(=O)[C@H](CCC(=O)O)NC2=O [compound 309]
- Nav1.4/Nav1.7 (hNav1.4): 239
- Nav1.5/Nav1.7 (hNav1.5): 634

SMILES: C#CC[C@H](N)C(=O)N[C@@H](Cc1ccc(O)cc1)C(=O)N[C@H]1CSSC[C@@H]2NC(=O)[C@@H]3CSSC[C@@H](C(=O)N[C@@H](CCCNC(=N)N)C(=O)N[C@@H](CCCCN)C(=O)N[C@@H](Cc4ccc(O)cc4)C(=O)N[C@H](C(N)=O)[C@@H](C)CC)NC(=O)[C@H](Cc4c[nH]c5ccccc45)NC(=O)[C@H](CC(C)C)NC(=O)[C@H](CCCCN)NC(=O)[C@H](CSSC[C@H](NC(=O)[C@H]([C@@H](C)O)NC(=O)[C@H](Cc4c[nH]c5ccccc45)NC(=O)[C@H](CCCC)NC(=O)[C@H](Cc4c[nH]c5ccccc45)NC(=O)[C@H](CCCCN)NC(=O)[C@H](CCC(N)=O)NC1=O)C(=O)N[C@@H](CC(=O)O)C(=O)N[C@@H](CO)C(=O)N[C@@H](CCCCN)C(=O)N[C@@H](CCCNC(=N)N)C(=O)N[C@@H](C)C(=O)N3)NC(=O)[C@H](CCC(=O)O)NC(=O)[C@H](CC(C)C)NC(=O)CNC(=O)[C@H](CCC(=O)O)NC2=O [compound 313]
- Nav1.4/Nav1.7 (hNav1.4): 2261
- Nav1.5/Nav1.7 (hNav1.5): 10226

SMILES: C#CC[C@@H]1NC(=O)[C@H](CC(=O)O)NC(=O)[C@@H]2CSSC[C@@H]3NC(=O)[C@H](CCC(=O)O)NC(=O)[C@H](CC(C)C)NC(=O)CNC(=O)[C@H](CCC(=O)O)NC(=O)[C@H](CSSC[C@H](NC(=O)[C@@H](N)Cc4ccc(O)cc4)C(=O)N[C@@H](CCC(N)=O)C(=O)N[C@@H](CCCCN)C(=O)N[C@@H](Cc4c[nH]c5ccccc45)C(=O)N[C@@H](CCCC)C(=O)N[C@@H](Cc4c[nH]c5ccccc45)C(=O)N[C@@H]([C@@H](C)O)C(=O)N2)NC(=O)[C@H](CSSC[C@@H](C(=O)N[C@@H](CCCNC(=N)N)C(=O)N[C@@H](CCCCN)C(=O)N[C@@H](Cc2ccc(O)cc2)C(=O)N[C@H](C(N)=O)[C@@H](C)CC)NC(=O)[C@H](Cc2c[nH]c4ccccc24)NC(=O)[C@H](CC(C)C)NC(=O)[C@H](CCCCN)NC3=O)NC(=O)[C@H](C)NC(=O)[C@H](CCCNC(=N)N)NC(=O)[C@H](CCCCN)NC1=O [compound 315]
- Nav1.4/Nav1.7 (hNav1.4): 643
- Nav1.5/Nav1.7 (hNav1.5): 1914

SMILES: C#CC[C@@H]1NC(=O)[C@H](CCCNC(=N)N)NC(=O)[C@H](CCCCN)NC(=O)[C@H](CO)NC(=O)[C@H](CC(=O)O)NC(=O)[C@@H]2CSSC[C@@H]3NC(=O)[C@H](CCC(=O)O)NC(=O)[C@H](CC(C)C)NC(=O)CNC(=O)[C@H](CCC(=O)O)NC(=O)[C@H](CSSC[C@H](NC(=O)[C@@H](N)Cc4ccc(O)cc4)C(=O)N[C@@H](CCC(N)=O)C(=O)N[C@@H](CCCCN)C(=O)N[C@@H](Cc4c[nH]c5ccccc45)C(=O)N[C@@H](CCCC)C(=O)N[C@@H](Cc4c[nH]c5ccccc45)C(=O)N[C@@H]([C@@H](C)O)C(=O)N2)NC(=O)[C@H](CSSC[C@@H](C(=O)N[C@@H](CCCNC(=N)N)C(=O)N[C@@H](CCCCN)C(=O)N[C@@H](Cc2ccc(O)cc2)C(=O)N[C@H](C(N)=O)[C@@H](C)CC)NC(=O)[C@H](Cc2c[nH]c4ccccc24)NC(=O)[C@H](CC(C)C)NC(=O)[C@H](CCCCN)NC3=O)NC1=O [compound 316]
- Nav1.4/Nav1.7 (hNav1.4): 402
- Nav1.5/Nav1.7 (hNav1.5): 2099

SMILES: C#CC[C@@H]1NC(=O)[C@@H]2CSSC[C@H](NC(=O)[C@@H](N)Cc3ccc(O)cc3)C(=O)N[C@@H](CCC(N)=O)C(=O)N[C@@H](CCCCN)C(=O)N[C@@H](Cc3c[nH]c4ccccc34)C(=O)N[C@@H](CCCC)C(=O)N[C@@H](Cc3c[nH]c4ccccc34)C(=O)N[C@@H]([C@@H](C)O)C(=O)N[C@H]3CSSC[C@H](NC(=O)[C@H](CCC(=O)O)NC(=O)[C@H](CC(C)C)NC(=O)CNC1=O)C(=O)N[C@@H](CCCCN)C(=O)N[C@@H](CC(C)C)C(=O)N[C@@H](Cc1c[nH]c4ccccc14)C(=O)N[C@H](C(=O)N[C@@H](CCCNC(=N)N)C(=O)N[C@@H](CCCCN)C(=O)N[C@@H](Cc1ccc(O)cc1)C(=O)N[C@H](C(N)=O)[C@@H](C)CC)CSSC[C@H](NC(=O)[C@H](C)NC(=O)[C@H](CCCNC(=N)N)NC(=O)[C@H](CCCCN)NC(=O)[C@H](CO)NC(=O)[C@H](CC(=O)O)NC3=O)C(=O)N2 [compound 317]
- Nav1.4/Nav1.7 (hNav1.4): 161
- Nav1.5/Nav1.7 (hNav1.5): 927

SMILES: C#CC[C@H](N)C(=O)N[C@H]1CSSC[C@@H]2NC(=O)[C@@H]3CSSC[C@@H](C(=O)N[C@@H](CCCNC(=N)N)C(=O)N[C@@H](CCCCN)C(=O)N[C@@H](CCC(=O)O)C(=O)N[C@H](C(N)=O)[C@@H](C)CC)NC(=O)[C@H](Cc4c[nH]c5ccccc45)NC(=O)[C@H](CC(C)C)NC(=O)[C@H](CCCCN)NC(=O)[C@H](CSSC[C@H](NC(=O)[C@H]([C@@H](C)O)NC(=O)[C@H](Cc4c[nH]c5ccccc45)NC(=O)[C@H](CCCC)NC(=O)[C@H](Cc4c[nH]c5ccccc45)NC(=O)[C@H](CCCCN)NC(=O)[C@H](CCC(N)=O)NC1=O)C(=O)N[C@@H](CC(=O)O)C(=O)N[C@@H](CO)C(=O)N[C@@H](CCCCN)C(=O)N[C@@H](CCCNC(=N)N)C(=O)N[C@@H](C)C(=O)N3)NC(=O)[C@H](CCCNC(=N)N)NC(=O)[C@H](CC(C)C)NC(=O)CNC(=O)[C@H](CCC(=O)O)NC2=O [compound 329]
- Nav1.4/Nav1.7 (hNav1.4): 555
- Nav1.5/Nav1.7 (hNav1.5): 17167

SMILES: C#CC[C@@H]1NC(=O)[C@H](CC(=O)O)NC(=O)[C@@H]2CSSC[C@@H]3NC(=O)[C@H](CCCNC(=N)N)NC(=O)[C@H](CC(C)C)NC(=O)CNC(=O)[C@H](CCC(=O)O)NC(=O)[C@H](CSSC[C@H](NC(=O)[C@@H](N)Cc4ccc(O)cc4)C(=O)N[C@@H](CCC(N)=O)C(=O)N[C@@H](CCCCN)C(=O)N[C@@H](Cc4c[nH]c5ccccc45)C(=O)N[C@@H](CCCC)C(=O)N[C@@H](Cc4c[nH]c5ccccc45)C(=O)N[C@@H]([C@@H](C)O)C(=O)N2)NC(=O)[C@H](CSSC[C@@H](C(=O)N[C@@H](CCCNC(=N)N)C(=O)N[C@@H](CCCCN)C(=O)N[C@@H](CCC(=O)O)C(=O)N[C@H](C(N)=O)[C@@H](C)CC)NC(=O)[C@H](Cc2c[nH]c4ccccc24)NC(=O)[C@H](CC(C)C)NC(=O)[C@H](CCCCN)NC3=O)NC(=O)[C@H](C)NC(=O)[C@H](CCCNC(=N)N)NC(=O)[C@H](CCCCN)NC1=O [compound 330]
- Nav1.4/Nav1.7 (hNav1.4): 291
- Nav1.5/Nav1.7 (hNav1.5): 7841
